Measurements taken from US7786310B2, “Small molecule transcriptional activation domains” (The Regents of the University of Michigan, priority 2004, dated 2010).

How the values were obtained:
[1] = system: HeLa nuclear extracts; conditions: for ability to up-regulate transcription (activity in words, compared with AD 1): Example 9 numbering (FIG. 13/14A), ATF14 as positive control, FIG. 15
[2] = system: transcription mediated by 4; test: competition/squelching experiment: free activation domain added to in vitro transcription reactions containing the DNA-bound activator; format: biochemical, human; conditions: 1-10 μM concentration of free activation domain; FIG. 7
Procedure: In this experiment, micromolar concentrations of free activation domain are added to transcription reactions containing the DNA-bound activator and the corresponding affect on transcription levels is measured. Results with one of the activation domains (4) is shown (See, e.g., FIGS. 7-8).

| Molecule | ability to up-regulate transcription (activity in words, compared with AD 1) [1] | suppression of transcription mediated by 4 [2] [%] | transcriptional activation when the activation domain is not covalently linked to methotrexate (not localized to DNA) ([1]; isoxazolidine and methotrexate hydrazide 1 added separately in the same reaction, FIG. 6) |
| --- | --- | --- | --- |
| 2-(4({(6-(Amino-methylcarbaminidoylimino-methyl)-pyrazin-2-ylmethyl)-methylamino}-methyl)-benzoylamino)-4-(2-(2-benzyl-(5RS)-hydroxymethyl-(3RS)-isobutylisoxazolidin-3-yl)-ethylidene-hydrazinocarbonyl)-(S)-butyric acid [isoxazolidine 6] | function well as transcriptional ADs | – | – |
| 2-(4({(6-(Amino-methylcarbaminidoylimino-methyl)-pyrazin-2-ylmethyl)-methylamino}-methyl)-benzoylamino)-4-(2-benzyl-(3RS)-(2-hydroxy-ethyl)-3-isobutylisoxazolidin-(5RS)-ylmethylene-hydrazinocarbonyl)-(S)-butyric acid [isoxazolidine 4] | indistinguishable from that of AD 1 | – | – |
| CC(C)C[C@]1(C/C=N/NC(=O)CC[C@H](NC(=O)c2ccc(N(C)Cc3cnc4nc(N)nc(N)c4n3)cc2)C(=O)O)C[C@](C)(CO)ON1CC(=O)O (racemic) [isoxazolidine 3, 2-(4({(6-(Amino-methylcarbaminidoylimino-methyl)-pyrazin-2-ylmethyl)-methylamino}-methyl)-benzoylamino)-4-{2-((5RS)-hydroxymethyl-2-(hydroxy-2-oxopropyl)-(3RS)-isobutyl-isoxazolidin-3-yl)-ethylidene-hydrazinocarbonyl}-(S)-butyric acid] | indistinguishable from that of AD 1 | – | – |
| COC(OC)C1CC(CCO)(CC(C)C)N(Cc2ccccc2)O1 (centres unmarked) [S8, 2-(2-Benzyl-5-dimethoxymethyl-3-isobutyl-isoxazolidin-3-yl)-ethanol] | – | ~50 | Little activation |
